Source: patent US10239843B2 (CANCER RESEARCH TECHNOLOGY LIMITED, priority 2014, dated 2019)
Where two headings read alike, the source gives them in different places.

How the values were obtained:
PARG in HeLa cell line = assay: PARG cell assay (PAR chain immunofluorescence after MMS); format: cell-based; conditions: HeLa cells, MMS treatment, read-out: PARG Cell IC50
Procedure, shortened: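 Nuclear poly(ADP-ribose) chains in HeLa cells are read by indirect immunofluorescence with a mouse anti-PAR antibody applied overnight at 4° C after fixing and permeabilising. Cells get 1 h of compound, then 50 μg/mL MMS (final) for another hour. PAR persisting at that point reflects PARG inhibition.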

Human Full Length PARG = Human Full Length PARG (Homo sapiens (Human), UniProt Q86W56); assay: PARG enzyme assay (TR-FRET); format: biochemical; conditions: read-out: PARG Biochem IC50
Sequence of Human Full Length PARG (Q86W56 whole entry): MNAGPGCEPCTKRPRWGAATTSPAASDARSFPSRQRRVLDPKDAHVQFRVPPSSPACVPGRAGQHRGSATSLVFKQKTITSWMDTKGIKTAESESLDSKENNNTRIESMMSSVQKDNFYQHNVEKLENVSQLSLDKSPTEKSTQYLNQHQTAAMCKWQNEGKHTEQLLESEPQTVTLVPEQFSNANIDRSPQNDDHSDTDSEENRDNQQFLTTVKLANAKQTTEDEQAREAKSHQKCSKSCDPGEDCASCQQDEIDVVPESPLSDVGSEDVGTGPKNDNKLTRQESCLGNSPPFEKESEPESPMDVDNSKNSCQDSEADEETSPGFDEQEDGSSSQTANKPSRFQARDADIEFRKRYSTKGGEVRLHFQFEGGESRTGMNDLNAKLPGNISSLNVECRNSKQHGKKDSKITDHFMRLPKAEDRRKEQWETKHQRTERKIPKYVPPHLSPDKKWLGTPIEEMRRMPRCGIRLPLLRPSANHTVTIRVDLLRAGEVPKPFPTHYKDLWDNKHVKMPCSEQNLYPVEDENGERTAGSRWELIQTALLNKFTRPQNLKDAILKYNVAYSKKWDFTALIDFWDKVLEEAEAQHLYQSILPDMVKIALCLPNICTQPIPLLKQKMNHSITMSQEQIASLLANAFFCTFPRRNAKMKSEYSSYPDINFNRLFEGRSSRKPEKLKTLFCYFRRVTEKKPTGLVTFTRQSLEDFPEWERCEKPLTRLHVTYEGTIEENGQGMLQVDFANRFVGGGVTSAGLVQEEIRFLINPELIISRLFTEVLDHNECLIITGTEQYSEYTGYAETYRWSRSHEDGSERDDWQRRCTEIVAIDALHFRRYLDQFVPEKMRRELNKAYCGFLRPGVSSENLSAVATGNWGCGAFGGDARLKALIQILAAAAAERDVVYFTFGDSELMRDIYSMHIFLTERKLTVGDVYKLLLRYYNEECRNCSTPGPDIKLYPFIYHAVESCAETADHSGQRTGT

IC50 (PARG in HeLa cell line; Homo sapiens) [nM]	IC50 (Human Full Length PARG) [nM]	IC50 (PARG in HeLa cell line) [nM]	Compound
1080	1040		Cc1cc(CN2C(=O)c3cccc4cc(S(=O)(=O)NC5(C)CC5)cc(c34)C2=O)on1 [Example 464, N-(1-Methylcyclopropyl)-2-[(3-methylisoxazol-5-yl)methyl]-1,3-dioxo-benzo[de]isoquinoline-5-sulfonamide]
214	361		Cc1cc(Cn2c(=O)c3cc(S(=O)(=O)NC4(C)CC4)ccc3n(CC3(C)CCC3)c2=O)on1 [Example 467, 1-[(1-Methylcyclobutyl)methyl]-N-(1-methylcyclopropyl)-3-[(3-methylisoxazol-5-yl)methyl]-2,4-dioxo-quinazoline-6-sulfonamide]
1120	3980		CCOC(=O)Cn1c(=O)c2cc(S(=O)(=O)NC3(C)CC3)ccc2n(C)c1=O [Example 468, Ethyl 2-[1-methyl-6-[(1-methylcyclopropyl)sulfamoyl]-2,4-dioxo-quinazolin-3-yl]acetate]
266	546		CCC(CC)Cn1c(=O)n(Cc2cc(C)no2)c(=O)c2cc(S(=O)(=O)NC3(C)CC3)ccc21 [Example 470, 1-(2-Ethylbutyl)-N-(1-methylcyclopropyl)-3-[(3-methylisoxazol-5-yl)methyl]-2,4-dioxo-quinazoline-6-sulfonamide]
	196	144	Cc1cc(Cn2c(=O)c3cc(S(=O)(=O)NC4(C)CC4)ccc3n(Cc3cnn(C(C)C)c3)c2=O)on1 [Example 473, 1-[(1-Isopropylpyrazol-4-yl)methyl]-N-(1-methylcyclopropyl)-3-[(3-methylisoxazol-5-yl)methyl]-2,4-dioxo-quinazoline-6-sulfonamide]
1170	6120		Cn1c(=O)n(CC(=O)N2CCCC2)c(=O)c2cc(S(=O)(=O)NC3(C)CC3)ccc21 [Example 475, 1-Methyl-N-(1-methylcyclopropyl)-2,4-dioxo-3-(2-oxo-2-pyrrolidin-1-yl-ethyl)quinazoline-6-sulfonamide]
	784	1530	Cc1cc(Cn2c(=O)n(Cc3cnn(C)c3)c(=O)c3cc(S(=O)(=O)NC(C)(C)C)ccc32)n(C)n1 [Example 480]
2840	7000		Cn1c(=O)n(CC2COC2)c(=O)c2cc(S(=O)(=O)NC3(C)CC3)ccc21 [Example 481, 1-Methyl-N-(1-methylcyclopropyl)-3-(oxetan-3-ylmethyl)-2,4-dioxo-quinazoline-6-sulfonamide]
2280	1620		Cn1cc(Cc2cc3cc(S(=O)(=O)NC4(C)CC4)ccc3[nH]c2=O)cn1 [Example 486, N-(1-Methylcyclopropyl)-3-[(1-methylpyrazol-4-yl)methyl]-2-oxo-1H-quinoline-6-sulfonamide]
> 30000	8970		CC1(NS(=O)(=O)c2ccc3[nH]c(=O)c(Br)cc3c2)CC1 [Example 487, 3-Bromo-N-(1-methylcyclopropyl)-2-oxo-1H-quinoline-6-sulfonamide]
741	489		Cc1cc(Cn2c(=O)c(Cc3cnn(C)c3)cc3cc(S(=O)(=O)NC4(C)CC4)ccc32)n(C)n1 [Example 492, 1-[(2,5-Dimethylpyrazol-3-yl)methyl]-N-(1-methylcyclopropyl)-3-[(1-methylpyrazol-4-yl)methyl]-2-oxo-quinoline-6-sulfonamide]
524	453		Cc1cc(Cn2c(=O)c3cc(S(=O)(=O)NC4(C)CC4)cc(-c4ccc(C)s4)c3n(C)c2=O)on1 [Example 493, 1-Methyl-N-(1-methylcyclopropyl)-3-[(3-methylisoxazol-5-yl)methyl]-8-(5-methyl-2-thienyl)-2,4-dioxo-quinazoline-6-sulfonamide]
	2670	5490	CC1(NS(=O)(=O)c2ccc3[nH]c(=O)n(CCC#N)c(=O)c3c2)CC1 [Example 496, 3-(2-Cyanoethyl)-N-(1-methylcyclopropyl)-2,4-dioxo-1H-quinazoline-6-sulfonamide]

The next lines start with the compound.

Compound	IC50 (PARG in HeLa cell line; Homo sapiens) [nM]	IC50 (Human Full Length PARG) [nM]	IC50 (PARG in HeLa cell line) [nM]
Cc1cc(Cn2c(=O)c3cc(S(=O)(=O)NC4(C)CC4)ccc3n(CC(C)(C)C)c2=O)on1 [Example 465, 1-(2,2-Dimethylpropyl)-N-(1-methylcyclopropyl)-3-[(3-methylisoxazol-5-yl)methyl]-2,4-dioxo-quinazoline-6-sulfonamide]	188	283	
CC[C@H](C)Cn1c(=O)n(Cc2cc(C)no2)c(=O)c2cc(S(=O)(=O)NC3(C)CC3)ccc21 [Example 466, 1-[(2S)-2-Methylbutyl]-N-(1-methylcyclopropyl)-3-[(3-methylisoxazol-5-yl)methyl]-2,4-dioxo-quinazoline-6-sulfonamide]		274	232
CCC(=O)Cn1c(=O)c2cc(S(=O)(=O)NC3(C)CC3)ccc2n(C)c1=O [Example 469, 1-Methyl-N-(1-methylcyclopropyl)-2,4-dioxo-3-(2-oxobutyl)quinazoline-6-sulfonamide]	663	1200	
COC1(Cn2c(=O)n(Cc3cc(C)no3)c(=O)c3cc(S(=O)(=O)NC4(C)CC4)ccc32)CCCC1 [Example 471, 1-[(1-Methoxycyclopentyl)methyl]-N-(1-methylcyclopropyl)-3-[(3-methylisoxazol-5-yl)methyl]-2,4-dioxo-quinazoline-6-sulfonamide]	241	550	
Cc1cc(Cn2c(=O)c3cc(S(=O)(=O)NC4(C)CC4)ccc3n(CCC(C)C)c2=O)on1 [Example 472, 1-Isopentyl-N-(1-methylcyclopropyl)-3-[(3-methylisoxazol-5-yl)methyl]-2,4-dioxo-quinazoline-6-sulfonamide]	198	273	
Cc1cc(Cn2c(=O)c3cc(S(=O)(=O)NC4(C)CC4)ccc3n(CCCC(C)C)c2=O)on1 [Example 474, 1-Isohexyl-N-(1-methylcyclopropyl)-3-[(3-methylisoxazol-5-yl)methyl]-2,4-dioxo-quinazoline-6-sulfonamide]	548	331	
CN(C)C(=O)Cn1c(=O)c2cc(S(=O)(=O)NC3(C)CC3)ccc2n(C)c1=O [Example 476, N,N-Dimethyl-2-[1-methyl-6-[(1-methylcyclopropyl)sulfamoyl]-2,4-dioxo-quinazolin-3-yl]acetamide]	1340	3710	
Cc1cc(Cn2c(=O)c3cc(S(=O)(=O)NC4(C)CC4)ccc3n(CC3CC(C)(C)C3)c2=O)on1 [Example 477, 1-[(3,3-Dimethylcyclobutyl)methyl]-N-(1-methylcyclopropyl)-3-[(3-methylisoxazol-5-yl)methyl]-2,4-dioxo-quinazoline-6-sulfonamide]		208	403
Cc1ncc(Cn2c(=O)c3cc(S(=O)(=O)NC4(C)CC4)ccc3n(CC3CC(C)(C)C3)c2=O)s1 [Example 478, 1-[(3,3-dimethylcyclobutyl)methyl]-N-(1-methylcyclopropyl)-3-[(2-methylthiazol-5-yl)methyl]-2,4-dioxo-quinazoline-6-sulfonamide]	121	109	
Cn1cc(Cn2c(=O)[nH]c3ccc(S(=O)(=O)NC4(C=O)CC4)cc3c2=O)cn1 [Example 479, N-(1-Formylcyclopropyl)-3-[(1-methylpyrazol-4-yl)methyl]-2,4-dioxo-1H-quinazoline-6-sulfonamide]	3650	10200	
Cc1cc(Cn2c(=O)c3cc(S(=O)(=O)NC4(C)CC4)cc(Br)c3n(C)c2=O)on1 [Example 482, 8-Bromo-1-methyl-N-(1-methylcyclopropyl)-3-[(3-methylisoxazol-5-yl)methyl]-2,4-dioxo-quinazoline-6-sulfonamide]	274	830	
Cc1cc(Cn2c(=O)c3cc(S(=O)(=O)NC4(C)CC4)cc(-c4cnn(C)c4)c3n(C)c2=O)on1 [Example 483, 1-Methyl-N-(1-methylcyclopropyl)-3-[(3-methylisoxazol-5-yl)methyl]-8-(1-methylpyrazol-4-yl)-2,4-dioxo-quinazoline-6-sulfonamide]	845	1690	
Cc1cc(Cn2c(=O)n(Cc3cnn(C)c3)c(=O)c3cc(S(=O)(=O)NC4(C(F)(F)F)CC4)ccc32)n(C)n1 [Example 485, 1-[(2,5-Dimethylpyrazol-3-yl)methyl]-3-[(1-methylpyrazol-4-yl)methyl]-2,4-dioxo-N-[1-(trifluoromethyl)cyclopropyl]quinazoline-6-sulfonamide]		7100	4070
Cn1cc(Cc2cc3cc(S(=O)(=O)NC4(C)CC4)ccc3n(C)c2=O)cn1 [Example 491, 1-Methyl-N-(1-methylcyclopropyl)-3-[(1-methylpyrazol-4-yl)methyl]-2-oxo-quinoline-6-sulfonamide]		3440	1790
Cn1c(=O)n(Cc2cnsc2)c(=O)c2cc(S(=O)(=O)NC3(CF)CC3)ccc21 [Example 494, N-[1-(Fluoromethyl)cyclopropyl]-3-(isothiazol-4-ylmethyl)-1-methyl-2,4-dioxo-quinazoline-6-sulfonamide]	1100	1260	
Cn1c(=O)n(CCC#N)c(=O)c2cc(S(=O)(=O)NC3(C)CC3)ccc21 [Example 497, 3-(2-Cyanoethyl)-1-methyl-N-(1-methylcyclopropyl)-2,4-dioxo-quinazoline-6-sulfonamide]	2250	2710	
Cc1nnc(Cn2c(=O)c3cc(S(=O)(=O)NC4(C)CC4)ccc3n(C)c2=O)s1 [Example 500, 1-Methyl-N-(1-methylcyclopropyl)-3-[(5-methyl-1,3,4-thiadiazol-2-yl)methyl]-2,4-dioxo-quinazoline-6-sulfonamide]		472	350
Cc1ncc(Cn2c(=O)c3cc(S(=O)(=O)NC4(C)CC4)ccc3n(CC#N)c2=O)s1 [Example 502, 1-(Cyanomethyl)-N-(1-methylcyclopropyl)-3-[(2-methylthiazol-5-yl)methyl]-2,4-dioxo-quinazoline-6-sulfonamide]	171	284	
